T/C data for 15 molecules are collected here from PubChem BioAssay AID328 (DTP/NCI, 2004).

Values joined by “and” are separate entries in the source; they are usually repeats but may differ in a detail not shown here. Equal entries are not always repeated. Toxic doses and inconclusive results are not listed.

The experiment relates to BDF1 mice, P388 leukemia ip, median survival T/C. Description: NCI In Vivo Anticancer Drug Screen. Data for tumor model P388 Leukemia (intraperitoneal) in B6D2F1 (BDF1) mice. To be noted: endpoint: median survival time, higher = longer survival. Put shortly: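 Each value expresses how treatment altered survival: treated-mouse outcome over vehicle-mouse outcome, both groups bearing the transplanted tumour.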

The mark [1] stands for this setting: dose: 25.0 mg/kg/injection, schedule: Q01DX009 (ip), vehicle: Klucel (hydroxypropylcellulose) (HPC).
The mark [2] stands for this setting: dose: 50.0 mg/kg/injection, schedule: Q01DX009 (ip), vehicle: Klucel (hydroxypropylcellulose) (HPC).
Where [3] appears, read: dose: 100.0 mg/kg/injection, schedule: Q01DX009 (ip), vehicle: Klucel (hydroxypropylcellulose) (HPC).
Setting [4] is: dose: 100.0 mg/kg/injection, schedule: Q04DX003 (ip), vehicle: saline.
Setting [5] is: dose: 200.0 mg/kg/injection, schedule: Q04DX003 (ip), vehicle: saline.
Where [6] appears, read: dose: 100.0 mg/kg/injection, schedule: Q04DX003 (ip), vehicle: saline with Tween-80.
Where [7] appears, read: dose: 200.0 mg/kg/injection, schedule: Q04DX003 (ip), vehicle: saline with Tween-80.
The mark [8] stands for this setting: dose: 400.0 mg/kg/injection, schedule: Q04DX003 (ip), vehicle: saline with Tween-80.
Where [9] appears, read: dose: 25.0 mg/kg/injection, schedule: Q01DX009 (ip), vehicle: saline with Tween-80.
Setting [10] is: dose: 50.0 mg/kg/injection, schedule: Q01DX009 (ip), vehicle: saline with Tween-80.
The mark [11] stands for this setting: dose: 100.0 mg/kg/injection, schedule: Q01DX009 (ip), vehicle: saline with Tween-80.
The mark [12] stands for this setting: dose: 200.0 mg/kg/injection, schedule: Q01DX009 (ip), vehicle: Klucel (hydroxypropylcellulose) (HPC).
Where [13] appears, read: dose: 50.0 mg/kg/injection, schedule: Q04DX003 (ip), vehicle: saline with Tween-80.

Consider `C[n+]1ccc(Nc2ccc(NC(=O)c3ccc(C(=O)Nc4ccc(Nc5cc[n+](C)c(N)n5)cc4)cc3)cc2)nc1N`, for which the T/C was 180 % of control (dose: 6.3 mg/kg/injection, schedule: Q01DX007 (ip), vehicle: Klucel (hydroxypropylcellulose) (HPC)); 155 % of control (dose: 6.3 mg/kg/injection, schedule: Q01DX009 (ip), vehicle: saline); 180 % of control (dose: 9.6 mg/kg/injection, schedule: Q01DX007 (ip), vehicle: Klucel (hydroxypropylcellulose) (HPC)); 161 % of control (dose: 9.6 mg/kg/injection, schedule: Q01DX009 (ip), vehicle: saline); 190 % of control (dose: 12.5 mg/kg/injection, schedule: Q01DX009 (ip), vehicle: Klucel (hydroxypropylcellulose) (HPC)); 175 % of control (dose: 14.0 mg/kg/injection, schedule: Q01DX007 (ip), vehicle: Klucel (hydroxypropylcellulose) (HPC)). Besides, the T/C was 150 % of control (dose: 14.0 mg/kg/injection, schedule: Q01DX009 (ip), vehicle: saline); 172 % of control under setting [1]; 204 % of control under setting [2]; 259 % of control under setting [3]; 172 % of control under setting [4]; 163 % of control under setting [5].
As for `COC(OC)c1cc(=O)[nH]c(NC(=O)C(Cl)Cl)n1`, the T/C by setting is: under setting [6], 112 % of control; under setting [7], 95 % of control; under setting [8], 104 % of control.
On to `CCN(CC)C(=O)Cn1cc(F)c(N)nc1=O`, for which the T/C (dose: 100.0 mg/kg/injection, schedule: Q01DX009 (ip), vehicle: saline) is 95 % of control; the T/C under setting [4] was 110 % of control; the T/C (dose: 200.0 mg/kg/injection, schedule: Q01DX009 (ip), vehicle: saline) is 90 % of control; the T/C under setting [5] was 100 % of control; the T/C (dose: 400.0 mg/kg/injection, schedule: Q04DX003 (ip), vehicle: saline) was 100 % of control.
As to `COc1ccc(C2CC(c3ccccc3O)=NC(c3ccc(OC)cc3)N2)cc1` (centres undefined), the T/C by setting is: under setting [9], 91 % of control; under setting [10], 94 % of control; under setting [11], 92 % of control.
Consider `CC12CCC(C=C1N1CCCCC1)C(C)(C)O2` (centres undefined), for which the T/C is 101 % of control (dose: 50.0 mg/kg/injection, schedule: Q01DX005 (ip), vehicle: saline with Tween-80); 101 % of control (dose: 100.0 mg/kg/injection, schedule: Q01DX005 (ip), vehicle: saline with Tween-80); 106 % of control (dose: 200.0 mg/kg/injection, schedule: Q01DX005 (ip), vehicle: saline with Tween-80).
For the molecule `c1ccc2c(c1)ccc1nc3c4ccccc4c4ccccc4c3nc12`, the T/C reads like this: under setting [10], 114 % of control; under setting [11], 113 % of control; (dose: 200.0 mg/kg/injection, schedule: Q01DX009 (ip), vehicle: saline with Tween-80) 105 % of control.
In the case of `COc1ccccc1NC(=O)Nc1ccc(N(C)C)cc1`, the T/C reads like this: under setting [6], 90 % of control; under setting [7], 118 % of control; under setting [8], 90 % of control.
As to `NC(=O)NC1C(c2ccccc2)=NOC1C(N)=O` (centres undefined), the T/C by setting is: under setting [3], 105 % of control; under setting [12], 100 % of control.
As for `O=C1CCS(=O)(=O)c2ccccc21`, the T/C was 101 % of control (dose: 6.25 mg/kg/injection, schedule: Q01DX009 (ip), vehicle: saline with Tween-80); 117 % of control (dose: 12.5 mg/kg/injection, schedule: Q01DX009 (ip), vehicle: saline with Tween-80); 105 % of control under setting [9]; 98 % of control under setting [10].
Regarding `CC(C)(C)c1cccc(C(C)(C)C)c1`, the T/C reads like this: (dose: 100.0 mg/kg/injection, schedule: Q01DX001 (ip), vehicle: saline with Tween-80) 100 % of control; (dose: 200.0 mg/kg/injection, schedule: Q01DX001 (ip), vehicle: saline with Tween-80) 94 % of control.
Turning to `CCOC(=O)Nc1nc(NC(=O)OCC)c(Cl)nc1Cl`, the T/C reads like this: (dose: 12.5 mg/kg/injection, schedule: Q01DX009 (ip), vehicle: water) 113 % of control; (dose: 12.5 mg/kg/injection, schedule: Q04DX003 (ip), vehicle: water) 90 % of control and 104 % of control; (dose: 25.0 mg/kg/injection, schedule: Q01DX009 (ip), vehicle: water) 99 % of control; (dose: 25.0 mg/kg/injection, schedule: Q04DX003 (ip), vehicle: water) 92 % of control and 104 % of control; (dose: 50.0 mg/kg/injection, schedule: Q01DX009 (ip), vehicle: water) 111 % of control; (dose: 50.0 mg/kg/injection, schedule: Q04DX003 (ip), vehicle: water) 102 % of control. Besides, the T/C was 99 % of control (dose: 100.0 mg/kg/injection, schedule: Q01DX009 (ip), vehicle: water); 100 % of control and 101 % of control (dose: 100.0 mg/kg/injection, schedule: Q04DX003 (ip), vehicle: water); 90 % of control (dose: 200.0 mg/kg/injection, schedule: Q01DX009 (ip), vehicle: water); 94 % of control and 96 % of control (dose: 200.0 mg/kg/injection, schedule: Q04DX003 (ip), vehicle: water); 101 % of control (dose: 400.0 mg/kg/injection, schedule: Q01DX009 (ip), vehicle: water); 112 % of control (dose: 400.0 mg/kg/injection, schedule: Q04DX003 (ip), vehicle: water). For the same molecule, the T/C (dose: 500.0 mg/kg/injection, schedule: Q04DX003 (ip), vehicle: water) was 96 % of control.
Take `CN=C(N)c1ccc(N=C(N)c2ccc(N=C(N)c3ccc(N=C(O)c4cccc(C(O)=Nc5ccc(C(N)=Nc6ccc(C(N)=Nc7ccc(C(N)=NC)cc7)cc6)cc5)c4)cc3)cc2)cc1`: the T/C is 154 % of control (dose: 4.0 mg/kg/injection, schedule: Q01DX009 (ip), vehicle: saline with Tween-80); 123 % of control (dose: 4.0 mg/kg/injection, schedule: Q04DX003 (ip), vehicle: saline with Tween-80); 150 % of control (dose: 6.0 mg/kg/injection, schedule: Q04DX003 (ip), vehicle: saline with Tween-80); 177 % of control (dose: 8.0 mg/kg/injection, schedule: Q01DX009 (ip), vehicle: saline with Tween-80); 168 % of control (dose: 9.0 mg/kg/injection, schedule: Q04DX003 (ip), vehicle: saline with Tween-80); 200 % of control (dose: 11.0 mg/kg/injection, schedule: Q01DX009 (ip), vehicle: saline with Tween-80). The T/C by setting is: (dose: 12.0 mg/kg/injection, schedule: Q01DX009 (ip), vehicle: saline with Tween-80) 166 % of control; (dose: 14.0 mg/kg/injection, schedule: Q04DX003 (ip), vehicle: saline with Tween-80) 168 % of control; (dose: 16.0 mg/kg/injection, schedule: Q01DX009 (ip), vehicle: saline with Tween-80) 181 % of control and 183 % of control; (dose: 16.5 mg/kg/injection, schedule: Q01DX009 (ip), vehicle: saline with Tween-80) 227 % of control; (dose: 22.0 mg/kg/injection, schedule: Q04DX003 (ip), vehicle: saline with Tween-80) 159 % of control and 177 % of control and 204 % of control; (dose: 33.0 mg/kg/injection, schedule: Q04DX003 (ip), vehicle: saline with Tween-80) 250 % of control and 177 % of control. Besides, the T/C was 233 % of control and 194 % of control (dose: 37.5 mg/kg/injection, schedule: Q01DX009 (ip), vehicle: saline with Tween-80); 250 % of control and 190 % of control under setting [13]; 231 % of control and 200 % of control (dose: 75.0 mg/kg/injection, schedule: Q04DX003 (ip), vehicle: saline with Tween-80).
With `Cc1ccc2oc3ccccc3c(=O)c2c1`, the T/C is 95 % of control (dose: 50.0 mg/kg/injection, schedule: Q01DX001 (ip), vehicle: saline sonified); 95 % of control (dose: 100.0 mg/kg/injection, schedule: Q01DX001 (ip), vehicle: saline sonified); 95 % of control (dose: 200.0 mg/kg/injection, schedule: Q01DX001 (ip), vehicle: saline sonified).
As for `C=CN1C(=O)N(C=C)C(C)(CC(C)C)C1=O` (centres undefined), the T/C under setting [13] is 104 % of control, the T/C under setting [6] was 109 % of control and the T/C under setting [7] was 100 % of control.
Turning to `Cc1c(C)c(CC#N)c(C)c(C)c1CC#N`, the T/C by setting is: under setting [1], 91 % of control; under setting [2], 91 % of control; under setting [3], 87 % of control; (dose: 100.0 mg/kg/injection, schedule: Q04DX003 (ip), vehicle: Klucel (hydroxypropylcellulose) (HPC)) 92 % of control; under setting [12], 91 % of control.
